Experiments:
MCF7 cells = assay: Chromium-release cytotoxicity assay, MCF7 cells lysed by survivin-specific T cells; format: cell-based, human; settings: versus control / CCR9 knockdown
Description: FIG. 1: CCR9 knockdown sensitizes tumor cells to immune attack (A) MCF7 cells were transfected with the described siRNA sequences and harvested after 72 h for mRNA and protein estimation using RT-PCR (upper) and immunoblot (lower) analysis, respectively. GAPDH and beta-actin were used as controls for RNA and protein normalization, respectively. (B) Luc-CTL cytotoxicity assay with PBMC-derived CTLs and bi-specific Ab as effector population and MCF7 as target cells, which were transfected with individual (s1-s4) or pooled CCR9 siRNA sequences. PD-L1 and non-specific control siRNAs were used as positive and negative controls, respectively, for CTL-mediated cytotoxicity. (C, D) Cr-release assay showing % specific lysis of MCF7 cells by survivin-specific T cells at different ratios upon CCR9 knockdown (C) or overexpression (D). MCF7 cells were transfected with either CCR9 siRNA s1 (Δ), pooled siRNA sequences (◯), positive control PD-L1 (□), and non-specific control siRNA (▪) (C) or with pCMV6-AC-His control vector (▪) and pCMV6-AC-His-CCR9 expression construct (∘) (D) 72 h prior to the assay. […] Error bars denote ±SEM, and statistical significance was calculated using the unpaired, two-tailed Student's t-test. […]

CCR9+ tumor cells = assay: Transwell migration assay of CCR9+ tumor cells toward CCL25; format: cell-based

## pertussis toxin
MCF7 cells
  MCF7 lysis by survivin-specific CTL: did not elicit elevated tumor lysis
CCR9+ tumor cells
  migration of CCR9+ tumor cells toward CCL25: inhibited

— patent US20190054110A1, “MODULATORS OF CCR9 FOR TREATING TUMOR RESISTANCE TO IMMUNE RESPONSES” (DEUTSCHES KREBSFORSCHUNGSZENTRUM STIFTUNG DES ÖFFENTLICHEN …, priority 2016, published 2019)
